Reference: patent US20100048692A1, “Naphthofuranone Derivatives as Specific Inhibitors of Thymidylate Synthases” (priority 2006, published 2010)
In brackets after ≈: the same amount, converted by molar mass.

Tests used:
[1] = test system: multiresistant strains (clinical isolates); assay: Sensitivity assay on 23 isolated multiresistant bacterial strains; assay type: cell-based; details: multiresistant strains taken into consideration
Method: (§1) The bacterial cultures were obtained by sowing bacteria in Mueller-Hinton (Difco) stirring at 37 C for 24 hours, and were then diluted, after reaching an appreciable level of exponential growth, using a growth plot in order to get a […] CFU/mL inoculum.
(§2) Following, the obtained cultures were put in contact with growing concentrations of the present compound. Furthermore, it was measured the minimal concentration inhibiting the growth (MIC) of each of these compounds. In Table 2 several MIC obtained by different bacterial pathogenic strains have been reported that were treated using compounds of the present invention and were also compared with those obtained through ciprofluoxacin (cpx).

hDHFR (human DHFR) = molecular target: T1, hDHFR (human DHFR) (Homo sapiens, UniProt P00374); assay: Enzymatic inhibition assay (Ki), human DHFR; assay type: biochemical
T1 construct: made in house; host or cells: Escherichia coli chi2913
T1 sequence (P00374 1-187): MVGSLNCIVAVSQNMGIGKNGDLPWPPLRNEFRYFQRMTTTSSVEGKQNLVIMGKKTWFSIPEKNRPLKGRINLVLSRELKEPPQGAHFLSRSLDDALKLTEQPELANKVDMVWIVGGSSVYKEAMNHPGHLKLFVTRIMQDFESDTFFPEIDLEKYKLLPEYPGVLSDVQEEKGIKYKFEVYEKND
Method: The purified enzyme has been stored at −80° C. […] The enzymatic assays for the measurements of the Km consist in measuring the initial rate of the enzymatic reaction in presence of variable and increasing substrate (FAH2).
(§3) Enzymatic inhibition assay: The compounds hereby analyzed were previously dissolved in DMSO. The inhibitor concentrated solution was obtained by dissolving 2 mg of compound in 1 mL of DMSO. Next, solutions thus obtained were successively preserved and the […], and the stability of their working conditions was constantly controlled. The spectrophotometrical determinations of enzymatic reaction kinetics were carried out using a Parkin-Elmer λ16 spectrophotometer, provided with a multicell system which was maintained at the constant temperature of 20 C. degrees, with a HAAAKE F3C thermostatted bath.
The measurement of Ki (inhibition constant) was obtained through enzymatic inhibition essays carried out under stationary conditions. […] The enzyme is added finally. The assay aiming at controlling TS enzymatic activity is repeated at regular intervals. […] In this case inhibition constants were obtained through a non-linear regression analysis, which utilized of the least squared method, of the enzymatic reaction initial speeds relating to the inhibitor concentration; equation was the following: […]

CnTS = CnTS (Cryptococcus neoformans, UniProt P0CS12); assay type: biochemical
Sequence of CnTS (P0CS12 whole entry): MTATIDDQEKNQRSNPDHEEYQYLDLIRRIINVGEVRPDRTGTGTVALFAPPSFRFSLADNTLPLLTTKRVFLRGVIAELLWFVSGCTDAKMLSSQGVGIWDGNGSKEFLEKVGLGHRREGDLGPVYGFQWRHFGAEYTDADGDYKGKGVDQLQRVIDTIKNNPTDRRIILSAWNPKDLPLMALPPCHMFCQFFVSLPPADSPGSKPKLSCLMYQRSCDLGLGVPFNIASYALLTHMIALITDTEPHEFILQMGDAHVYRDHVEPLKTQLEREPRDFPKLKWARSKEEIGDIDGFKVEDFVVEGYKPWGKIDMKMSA
Method: as §3
The elaboration of the data was carried out using Kaleidagraph 3.0; this software was provided by Macintosh (Adelbeck, Software Reading, Pa., 1989, version 2.3). The measurement of Ki (inhibition constant) was obtained through enzymatic inhibition essays carried out under stationary conditions. […] The enzyme is added finally. The assay aiming at controlling TS enzymatic activity is repeated at regular intervals. […] In this case inhibition constants were obtained through a non-linear regression analysis, which utilized of the least squared method, of the enzymatic reaction initial speeds relating to the inhibitor concentration; equation was the following:
Vi=Vmax*(1−([I])/([I]+(Ki*(1+([s]/Km))))), where
Vi=enzymatic reaction initial velocity, Vmax=enzymatic reaction maximum velocity, I=inhibitor concentration, Ki=inhibition constant, S=substrate concentration, Km=Michaelis-Menten.
Using this equation it is possible to obtain Ki making use of a minimal amount of experimental data. The specificity index relating to each of the compounds (Bio. Med. Chem. ) refers to the relation between KihTS/Kiother enzyme.

VERO cells = assay: Citotoxicity assay (MTT test on VERO cells); assay type: cell-based; details: for MTT test, percentage of cellular growth: VERO cells, 24-hour incubation
Method: Aiming at evaluating the citotoxicity level, the compounds included in the present invention were submitted to the MTT assay, by using VERO cells on MEM soil/ground which was previously added with […]), penicillin (1%) (50 U/ml), streptomycine (50 μg/ml) e L-glutamine (1%) according to the Ishioka method (1988). Afterwards the cultures have been observed for 2 days through microscope at indirect light, and the living cells have been quantified in a Burker camera using the Tripan blue exclusion assay.
Later several increasing concentrations of the analyzed compound were added thereto and, after a 24-hour incubation period, the mitochondrial dehydrogenase activity was measured in the living cells (MTT assay) (Mosmann, T. 1983), by using a sample of the hereof compound which had not been previously as a comparison.

Citrobacter 224 = assay: Sensitivity assay (MIC); assay type: cell-based
Method: (§4) The anti-bacterial properties of the compounds hereby described were evaluated towards: a) bacterial native strains comprehending gram-positive and gram-negative bacteria. The bacterial cultures were obtained by sowing bacteria in Mueller-Hinton (Difco) stirring at 37 C for 24 hours, and were then diluted, after reaching an appreciable level of exponential growth, using a growth plot in order to get a […] CFU/mL inoculum. Following, the obtained cultures were put in contact with growing concentrations of the present compound. Furthermore, it was measured the minimal concentration inhibiting the growth (MIC) of each of these compounds. In Table 2 several MIC obtained by different bacterial pathogenic strains have been reported that were treated using compounds of the present invention and were also compared with those obtained through ciprofluoxacin (cpx).

Listeria monocytogenes 7 = assay: Sensitivity assay (MIC); assay type: cell-based
Method: as §4

[2] = test system: Staphylococcus aureus K28; assay: Sensitivity assay (MIC); assay type: cell-based
Method: as §4

Listeria monocytogenes 8 = assay: Sensitivity assay (MIC); assay type: cell-based
Method: as §4

Escherichia coli 256 = assay: Sensitivity assay (MIC); assay type: cell-based
Method: as §4

Escherichia coli 292 = assay: Sensitivity assay (MIC); assay type: cell-based
Method: as §4

Listeria monocytogenes 6 = assay: Sensitivity assay (MIC); assay type: cell-based
Method: as §4

Listeria monocytogenes 5 = assay: Sensitivity assay (MIC); assay type: cell-based
Method: as §4

[3] = test system: Enterococcus faecalis ATCCC 29212; assay: Sensitivity assay (MIC); assay type: cell-based
Method: as §4

[4] = test system: Staphylococcus saprophiticus ATCC15305; assay: Sensitivity assay (MIC); assay type: cell-based
Method: as §4

[5] = test system: Staphylococcus aureus ATCC29213; assay: Sensitivity assay (MIC); assay type: cell-based
Method: as §4

Listeria monocytogenes 3 = assay: Sensitivity assay (MIC); assay type: cell-based
Method: as §4

[6] = test system: Staphylococcus aureus 343; assay: Sensitivity assay (MIC); assay type: cell-based
Method: as §4

[7] = test system: Staphylococcus haemolyticus ATCC 2997; assay: Sensitivity assay (MIC); assay type: cell-based
Method: as §4

[8] = test system: Staphylococcus aureus 341; assay: Sensitivity assay (MIC); assay type: cell-based
Method: as §4

Streptococcus 42 = assay: Sensitivity assay (MIC); assay type: cell-based
Method: as §4

[9] = test system: Listeria monocytogenes ATCC 4428; assay: Sensitivity assay (MIC); assay type: cell-based
Method: as §4

Listeria monocytogenes 4 = assay: Sensitivity assay (MIC); assay type: cell-based
Method: as §4

[10] = test system: S. epidermidis strains (multiresistant); assay: Sensitivity assay and growth curve, multiresistant S. epidermidis strains; assay type: cell-based, Staphylococcus epidermidis
Method: as §1, §2

O=C1OC(c2cc(Br)c(O)c(Br)c2)(c2cc(Br)c(O)c(Br)c2)c2ccc3ccccc3c21 [Compound 5, 3,3-bis-(3,5-bromo-4-hydroxyphenyl)-3H-naphtho(1,2-c)furan-1-one]
activity on multiresistant strains [1]: active on the major part of the multiresistant strains
Ki (hDHFR (human DHFR)): 69 µM
SSI hTS vs hDHFR (hDHFR (human DHFR)): 0.3
Ki (CnTS): 13 µM
citotoxicity (VERO cells; 1 mg/L, VERO cells (Table 3)): not to be citotoxic
MTT test, percentage of cellular growth (VERO cells; 1.56 mg/L): 100 percentage
MTT test, percentage of cellular growth (VERO cells; 3.12 mg/L): 100 percentage
MTT test, percentage of cellular growth (VERO cells; 6.25 mg/L): 100 percentage
MTT test, percentage of cellular growth (VERO cells; 12.05 mg/L): 100 percentage
MTT test, percentage of cellular growth (VERO cells; 25 mg/L): 100 percentage
MTT test, percentage of cellular growth (VERO cells; 50 mg/L): >100 percentage
Minimum inhibitory concentration (MIC) (Citrobacter 224): >25 µg/mL
Minimum inhibitory concentration (MIC) (Listeria monocytogenes 7): 2.5 µg/mL (≈ 3.66 µM)
Minimum inhibitory concentration (MIC) [2]: 2.5 µg/mL (≈ 3.66 µM)
Minimum inhibitory concentration (MIC) (Listeria monocytogenes 8): 2.5 µg/mL (≈ 3.66 µM)
Minimum inhibitory concentration (MIC) (Escherichia coli 256): >25 µg/mL
Minimum inhibitory concentration (MIC) (Escherichia coli 292): >25 µg/mL
Minimum inhibitory concentration (MIC) (Listeria monocytogenes 6): 2.5 µg/mL (≈ 3.66 µM)
Minimum inhibitory concentration (MIC) (Listeria monocytogenes 5): 2.5 µg/mL (≈ 3.66 µM)
Minimum inhibitory concentration (MIC) [3]: 2.5 µg/mL (≈ 3.66 µM)
Minimum inhibitory concentration (MIC) [4]: 1 µg/mL (≈ 1.46 µM)
Minimum inhibitory concentration (MIC) [5]: 2.5 µg/mL (≈ 3.66 µM)
Minimum inhibitory concentration (MIC) (Listeria monocytogenes 3): 2.5 µg/mL (≈ 3.66 µM)
Minimum inhibitory concentration (MIC) [6]: 2.5 µg/mL (≈ 3.66 µM)
Minimum inhibitory concentration (MIC) [7]: 2.5 µg/mL (≈ 3.66 µM)
Minimum inhibitory concentration (MIC) [8]: 2.5 µg/mL (≈ 3.66 µM)
Minimum inhibitory concentration (MIC) (Streptococcus 42): 2.5 µg/mL (≈ 3.66 µM)
Minimum inhibitory concentration (MIC) [9]: 2.5 µg/mL (≈ 3.66 µM)
Minimum inhibitory concentration (MIC) (Listeria monocytogenes 4): 2.5 µg/mL (≈ 3.66 µM)
inhibitory effect on S. epidermidis growth (FIG. 1) ([10]; 0.1 mg/L): No inhibitory effect
antibacterial activity on S. epidermidis growth (FIG. 1) ([10]; 0.5 mg/L, after a 8 hours period): antibacterial activity becomes evident
antibacterial effect on S. epidermidis growth (FIG. 1) ([10]; 1 mg/L): best result
concentration to which the strain is sensitive ([10]; S. epidemidis strain resistant to 17 antibiotics): 0.5 mg/L
lowest MIC on S. epidermidis strains ([10]; multiresistant S. epidermidis strains): 0.5 to 1 µg/mL
